pEC50, pIC50: −log10 of the molar value. Activity calls are given as the source filed them. No cut-off for these calls is given here. Bounds are passed on as bounds.

Data set [1] can be described thus: Inhibition of SARS-CoV-2 nsp10/nsp16 2'-O-methyltransferase activity expressed in NiCo21 (DE3) cells using m7GpppAUUAA and S-adenosylmethionine as substrate by filter binding assay. Further details: species or system Severe acute respiratory syndrome coronavirus 2.
For data set [2], the system named is Severe acute respiratory syndrome coronavirus 2. The data set can be described thus: Inhibition of SARS-CoV-2 nsp10/nsp16 2'-O-methyltransferase activity expressed in NiCo21 (DE3) cells using m7GpppAUUAA and S-adenosylmethionine as substrate at 10 uM incubated for 25 mins by luminescence based MTase Glo assay.
The test system of another data set is PBMC. The data set can be described thus: Cytotoxicity against human PBMC cells assessed as inhibition of cell proliferation incubated for 2 to 4 days by CellTiter 96 non-radioactive cell proliferation assay. It counts as toxicity, cell-based. Particulars: time 2-4 day.
The test system of a further data set is Vero. The experiment in a line: (§1) Cytotoxicity against African green monkey Vero cells assessed as inhibition of cell proliferation incubated for 2 to 4 days by CellTiter 96 non-radioactive cell proliferation assay. It counts as toxicity, cell-based. Particulars: chlorocebus sabaeus, vero; time 2-4 day.
For a further data set, the system named is SARS-CoV-2. The data set can be described thus: Antiviral activity against SARS-CoV-2 USA-WA1/2020 infected in african green monkey Vero cells assessed as reduction in viral replication by qRT-PCR analysis. It counts as functional, organism-based. Particulars: Severe acute respiratory syndrome coronavirus 2, USA-WA1/2020, Vero.
Data set [3] is described as follows: Inhibition of SARS-CoV-2 nsp10 (1 to 139 residues)/nsp16 (1 to 298 residues) expressed in Escherichia coli BL21(DE3)RIL cells using RNA and [3H]SAM as substrate incubated for 1 hrs by SPA-based assay. The arrangement: species or system Severe acute respiratory syndrome coronavirus 2.
A short description of data set [4]: as §1. It counts as toxicity, cell-based. To be noted: chlorocebus sabaeus, Vero cells; time 2-4 day.

One may read the pIC50 as the negative decadic logarithm of the IC50, by convention in mol/L. In general, CC50 refers to the concentration that lowers cell viability or growth by half. Usually pEC50 stands for the EC50 on a negative log10 scale, so that one unit is a factor of ten. Consider `CC1=CC[C@H]2[C@H](C1)c1c(O)cc(/C=C/c3ccc(O)cc3)cc1OC2(C)C`, for which the negative-log IC50 (pIC50) in data set [1] is 4.88. Further, the inhibition entry in data set [2] is “Active”. The CC50 in the data set with PBMC is 53.4 µM; in the data set with Vero it was 22.3 µM. Besides, the negative-log EC50 (pEC50) with SARS-CoV-2 was 5.15.

Regarding `Nc1ncnc2c1ncn2[C@@H]1O[C@H](C[C@@H](N)CC[C@H](N)C(=O)O)[C@@H](O)[C@H]1O` [SINEFUNGIN], in data set [2], the inhibition entry is “Active”. In addition, the pIC50 in data set [3] is 5.47.

Take `CCC(CC)COC(=O)[C@H](C)N[P@](=O)(OC[C@H]1O[C@@](C#N)(c2ccc3c(N)ncnn23)[C@H](O)[C@@H]1O)Oc1ccccc1`: the 50% cytotoxic concentration (CC50) with PBMC is 2 µM; in data set [4] it was more than 100 µM. The pEC50 in the data set on SARS-CoV-2 was 5.64.

In data set [1], `CC1=CC[C@H]2[C@H](C1)c1c(/C=C/c3ccc(O)cc3)cc(O)cc1OC2(C)C` gave a negative-log IC50 (pIC50) of 4.87. Also, the inhibition result in data set [2] was “Active”. The 50% cytotoxic concentration (CC50) stood at 60.4 µM with PBMC and 11.9 µM with Vero. Besides, the pEC50 in the data set on SARS-CoV-2 was 5.33.

The values above are taken from ChEMBL document CHEMBL5357029, “Informatics and Computational Approaches for the Discovery and Optimization of Natural Product-Inspired Inhibitors of the SARS-CoV-2 2'-O-Methyltransferase” (J Nat Prod, 2024).
